Source: PubChem BioAssay (NCI)
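In this assay, cells in 96-well plates receive the compound at five concentrations for 48 hours. Endpoints are linearly interpolated between the surrounding concentrations. At the GI50, growth is halved. TGI: total growth inhibition.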

Legend:
Experiment in all cases: NCI anticancer screen, dose series, 48 h
MALME-3M melanoma = test system: MALME-3M melanoma
MDA-MB-231 breast = test system: MDA-MB-231 breast
SR leukemia = test system: SR leukemia
T-47D breast = test system: T-47D breast
MOLT-4 leukemia = test system: MOLT-4 leukemia
K-562 leukemia = test system: K-562 leukemia
SN12C renal = test system: SN12C renal
SK-MEL-28 melanoma = test system: SK-MEL-28 melanoma
SW-620 colon = test system: SW-620 colon
CCRF-CEM leukemia = test system: CCRF-CEM leukemia
HCC-2998 colon = test system: HCC-2998 colon
CAKI-1 renal = test system: CAKI-1 renal
SF-539 CNS = test system: SF-539 CNS
PC-3 prostate = test system: PC-3 prostate
DU-145 prostate = test system: DU-145 prostate
HOP-92 NSCLC = test system: HOP-92 NSCLC
MDA-MB-435 = test system: MDA-MB-435
A498 renal = test system: A498 renal
NCI-H23 lung = test system: NCI-H23 lung
TK-10 renal = test system: TK-10 renal
SF-295 CNS = test system: SF-295 CNS
LOX IMVI melanoma = test system: LOX IMVI melanoma
SF-268 CNS = test system: SF-268 CNS
OVCAR-3 ovarian = test system: OVCAR-3 ovarian
UO-31 renal = test system: UO-31 renal
SNB-75 CNS = test system: SNB-75 CNS
OVCAR-4 ovarian = test system: OVCAR-4 ovarian
OVCAR-5 ovarian = test system: OVCAR-5 ovarian
786-0 renal = test system: 786-0 renal
UACC-62 melanoma = test system: UACC-62 melanoma
EKVX NSCLC = test system: EKVX NSCLC
RXF 393 renal = test system: RXF 393 renal
ACHN renal = test system: ACHN renal
NCI-H460 lung = test system: NCI-H460 lung
KM12 colon = test system: KM12 colon
M14 melanoma = test system: M14 melanoma
OVCAR-8 ovarian = test system: OVCAR-8 ovarian
IGROV1 ovarian = test system: IGROV1 ovarian
HCT-15 colon = test system: HCT-15 colon
NCI-H522 lung = test system: NCI-H522 lung
SK-MEL-5 melanoma = test system: SK-MEL-5 melanoma
HT29 colon = test system: HT29 colon
NCI/ADR-RES ovarian = test system: NCI/ADR-RES ovarian
MCF7 breast = test system: MCF7 breast
SNB-19 CNS = test system: SNB-19 CNS
HCT-116 colon = test system: HCT-116 colon
SK-MEL-2 melanoma = test system: SK-MEL-2 melanoma
HS 578T breast = test system: HS 578T breast
SK-OV-3 ovarian = test system: SK-OV-3 ovarian
A549 NSCLC = test system: A549 NSCLC
HOP-62 NSCLC = test system: HOP-62 NSCLC
NCI-H226 lung = test system: NCI-H226 lung
COLO 205 colon = test system: COLO 205 colon
RPMI-8226 leukemia = test system: RPMI-8226 leukemia
HL-60(TB) leukemia = test system: HL-60(TB) leukemia
U251 CNS = test system: U251 CNS
UACC-257 melanoma = test system: UACC-257 melanoma

## CCN(CC)CCCOc1ccc2ncnc(Nc3ccc(Oc4cccc(C(F)(F)F)c4)c(Cl)c3)c2c1
MALME-3M melanoma
  GI50: 1570 nM
  TGI: 3040 nM
MDA-MB-231 breast
  GI50: 1790 nM
  TGI: 3240 nM
SR leukemia
  GI50: 1410 nM
  TGI: 3760 nM
T-47D breast
  GI50: 1410 nM
  TGI: 3760 nM
MOLT-4 leukemia
  GI50: 1880 nM
  TGI: 4490 nM
K-562 leukemia
  GI50: 1210 nM
  TGI: 8730 nM
SN12C renal
  GI50: 1340 nM
  TGI: 2690 nM
SK-MEL-28 melanoma
  GI50: 1630 nM
  TGI: 2990 nM
SW-620 colon
  GI50: 1610 nM
  TGI: 3090 nM
CCRF-CEM leukemia
  GI50: 2260 nM
  TGI: 14200 nM
HCC-2998 colon
  GI50: 1580 nM
  TGI: 3090 nM
CAKI-1 renal
  GI50: 1400 nM
  TGI: 3100 nM
SF-539 CNS
  GI50: 1740 nM
  TGI: 3170 nM
PC-3 prostate
  GI50: 1750 nM
  TGI: 3580 nM
DU-145 prostate
  GI50: 1390 nM
  TGI: 2740 nM
HOP-92 NSCLC
  GI50: 1230 nM
  TGI: 2610 nM
MDA-MB-435
  GI50: 1650 nM
  TGI: 3220 nM
A498 renal
  GI50: 229 nM
  TGI: 3560 nM
NCI-H23 lung
  GI50: 1560 nM
  TGI: 3050 nM
TK-10 renal
  GI50: 1140 nM
  TGI: 2560 nM
SF-295 CNS
  GI50: 1730 nM
  TGI: 3170 nM
LOX IMVI melanoma
  GI50: 1630 nM
  TGI: 3060 nM
SF-268 CNS
  GI50: 1440 nM
  TGI: 3070 nM
OVCAR-3 ovarian
  GI50: 1450 nM
  TGI: 2840 nM
UO-31 renal
  GI50: 1060 nM
  TGI: 2260 nM
SNB-75 CNS
  GI50: 1490 nM
  TGI: 2860 nM
OVCAR-4 ovarian
  GI50: 1540 nM
  TGI: 2990 nM
OVCAR-5 ovarian
  GI50: 1560 nM
  TGI: 2990 nM
786-0 renal
  GI50: 1540 nM
  TGI: 2950 nM
UACC-62 melanoma
  GI50: 1760 nM
  TGI: 3220 nM
EKVX NSCLC
  GI50: 1260 nM
  TGI: 2850 nM
RXF 393 renal
  GI50: 1450 nM
  TGI: 2970 nM
ACHN renal
  GI50: 1070 nM
  TGI: 2260 nM
NCI-H460 lung
  GI50: 1780 nM
  TGI: 3330 nM
KM12 colon
  GI50: 1770 nM
  TGI: 3240 nM

## Cc1ccc(S(=O)(=O)NC(=O)NCCc2ccc(O)c(O)c2)cc1
MALME-3M melanoma
  TGI: > 100000 nM
M14 melanoma
  TGI: > 100000 nM
MDA-MB-231 breast
  TGI: > 100000 nM
SR leukemia
  TGI: > 100000 nM
MOLT-4 leukemia
  TGI: > 100000 nM
K-562 leukemia
  TGI: > 100000 nM
OVCAR-8 ovarian
  TGI: > 100000 nM
SK-MEL-28 melanoma
  TGI: > 100000 nM
SW-620 colon
  TGI: > 100000 nM
IGROV1 ovarian
  TGI: > 100000 nM
HCC-2998 colon
  TGI: > 100000 nM
CAKI-1 renal
  TGI: > 100000 nM
SF-539 CNS
  TGI: > 100000 nM
HCT-15 colon
  TGI: > 100000 nM
NCI-H522 lung
  TGI: > 100000 nM
SK-MEL-5 melanoma
  TGI: > 100000 nM
PC-3 prostate
  TGI: > 100000 nM
DU-145 prostate
  TGI: > 100000 nM
HT29 colon
  TGI: > 100000 nM
NCI/ADR-RES ovarian
  TGI: > 100000 nM
MCF7 breast
  TGI: > 100000 nM
HOP-92 NSCLC
  TGI: > 100000 nM
SNB-19 CNS
  TGI: > 100000 nM
HCT-116 colon
  TGI: > 100000 nM
MDA-MB-435
  TGI: > 100000 nM
A498 renal
  TGI: > 100000 nM
NCI-H23 lung
  TGI: > 100000 nM
SK-MEL-2 melanoma
  TGI: > 100000 nM
HS 578T breast
  TGI: > 100000 nM
TK-10 renal
  TGI: > 100000 nM
SF-295 CNS
  TGI: > 100000 nM
LOX IMVI melanoma
  TGI: > 100000 nM
SF-268 CNS
  TGI: > 100000 nM
OVCAR-3 ovarian
  TGI: > 100000 nM
SK-OV-3 ovarian
  TGI: > 100000 nM
A549 NSCLC
  TGI: > 100000 nM
UO-31 renal
  TGI: > 100000 nM
HOP-62 NSCLC
  TGI: > 100000 nM
SNB-75 CNS
  TGI: > 100000 nM
NCI-H226 lung
  TGI: > 100000 nM
OVCAR-4 ovarian
  TGI: > 100000 nM
COLO 205 colon
  TGI: > 100000 nM
OVCAR-5 ovarian
  TGI: > 100000 nM
RPMI-8226 leukemia
  TGI: > 100000 nM
HL-60(TB) leukemia
  TGI: > 100000 nM
786-0 renal
  TGI: > 100000 nM
UACC-62 melanoma
  TGI: > 100000 nM
EKVX NSCLC
  TGI: > 100000 nM
U251 CNS
  TGI: > 100000 nM
RXF 393 renal
  TGI: > 100000 nM
ACHN renal
  TGI: > 100000 nM
NCI-H460 lung
  TGI: > 100000 nM
KM12 colon
  TGI: > 100000 nM

## CCCCNCCC(O)c1cc2ccc(C(F)(F)F)cc2c2cc(C(F)(F)F)ccc12 (stereo unspecified)
MALME-3M melanoma
  GI50: 1960 nM
  TGI: 3870 nM
SN12C renal
  GI50: 1820 nM
  TGI: 3410 nM
UACC-257 melanoma
  GI50: 1520 nM
  TGI: 3020 nM
SW-620 colon
  GI50: 1300 nM
  TGI: 2790 nM
SK-MEL-5 melanoma
  GI50: 1690 nM
  TGI: 3060 nM
DU-145 prostate
  GI50: 1870 nM
  TGI: 3380 nM
HOP-92 NSCLC
  GI50: 1100 nM
  TGI: 2440 nM
A498 renal
  GI50: 1320 nM
  TGI: 2640 nM
TK-10 renal
  GI50: 1880 nM
  TGI: 3390 nM
COLO 205 colon
  GI50: 339 nM
  TGI: 1070 nM
OVCAR-5 ovarian
  GI50: 1610 nM
  TGI: 3130 nM
RPMI-8226 leukemia
  GI50: 2040 nM
  TGI: 4630 nM
UACC-62 melanoma
  GI50: 1780 nM
  TGI: 3350 nM

## COc1ccc(N2C(=O)/C(=C/C(Cl)=C/c3ccc([N+](=O)[O-])cc3)SC2=S)cc1
MDA-MB-231 breast
  GI50: 1690 nM
  TGI: > 100000 nM
SR leukemia
  GI50: 312 nM
  TGI: 22000 nM
T-47D breast
  GI50: 725 nM
  TGI: > 100000 nM
MOLT-4 leukemia
  GI50: 679 nM
  TGI: > 100000 nM
K-562 leukemia
  GI50: 555 nM
  TGI: > 100000 nM
UACC-257 melanoma
  GI50: 2880 nM
  TGI: > 100000 nM
OVCAR-8 ovarian
  GI50: 462 nM
  TGI: > 100000 nM
NCI/ADR-RES ovarian
  GI50: 562 nM
  TGI: > 100000 nM
MCF7 breast
  GI50: 393 nM
  TGI: > 100000 nM
SK-MEL-2 melanoma
  GI50: > 21300 nM
  TGI: > 100000 nM
HS 578T breast
  GI50: 3280 nM
  TGI: > 37900 nM
TK-10 renal
  GI50: 2760 nM
  TGI: > 100000 nM
SF-268 CNS
  GI50: 2950 nM
  TGI: > 100000 nM
HOP-62 NSCLC
  GI50: 2120 nM
  TGI: > 100000 nM
NCI-H226 lung
  GI50: 4230 nM
  TGI: > 100000 nM
RPMI-8226 leukemia
  GI50: 268 nM
  TGI: 727 nM
